Source: ChEMBL document CHEMBL6103657, “Discovery of a Potent SARM1 Base-Exchange Inhibitor with In Vivo Efficacy” (J Med Chem, 2025)

Key:
[1] = physchem; conditions: buffer, pH 6.5
[2] = physchem; conditions: octanol/aqueous buffer, pH 7.4

## CN(Cc1ccncc1)C(=O)NC1COCC1(F)F (stereo unspecified)
[1]
  solubility: > 271 µg/mL
[2]
  logD: 0.3

## CC[C@@H](c1ccncc1)N(C)C(=O)N[C@@H]1COCC1(F)F
[1]
  solubility: > 299 µg/mL
[2]
  logD: 0.73

## C[C@@H](c1ccncc1)N(C)/C(=N\C#N)NC1COCC1(F)F (stereo partly specified)
[1]
  solubility: > 309 µg/mL
[2]
  logD: 0.9
